Laboratory results: US10689354B2, “Aminoazole derivative” (Teijin Pharma Limited, priority 2015, dated 2020)

Each compound was assayed against T1, androgen receptor (AR-LBD) (Rattus norvegicus, UniProt P15207) (assay: Evaluation of androgen receptor affinity (PolarScreen Androgen Receptor Competitor Assay Kit, Red; fluorescence polarization)). Conditions: 22° C. for 5 hours, relative to binding rate of 1 μM DHT, read-out: AR affinity (pEC50) (converted).
T1 construct: 5 μL of 2×AR-LBD/Fluoromone AL Red Complex contained in the kit; purchased Invitrogen
T1 sequence (P15207 651-882 limits assumed): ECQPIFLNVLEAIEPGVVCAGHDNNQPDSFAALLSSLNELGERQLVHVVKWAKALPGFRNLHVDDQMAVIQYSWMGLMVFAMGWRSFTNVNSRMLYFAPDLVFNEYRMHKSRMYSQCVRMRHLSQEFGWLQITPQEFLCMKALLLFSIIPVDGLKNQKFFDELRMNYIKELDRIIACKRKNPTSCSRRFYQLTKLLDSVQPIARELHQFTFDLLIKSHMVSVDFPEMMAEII
In short: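 FP competition: compound + AR-LBD/Fluoromone AL Red tracer complex, 22° C, 5 h. Reference 1 μM DHT binding rate; pEC50 by 4-parameter fit.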

Row | EC50 | Structure (SMILES)
1 | > 2 µM | CS(=O)(=O)NC(=O)c1nc(N(Cc2ccccc2)c2ccc(C#N)cc2)sc1-c1ccccc1 [Compound 601, 2-(N-benzyl-4-cyano-anilino)-N-methylsulfonyl-5-phenyl-thiazole-4-carboxamide]
2 | 0.398 µM | Cc1sc(N(CCOC(C)C)c2ccc(C#N)cc2)nc1C(=O)NS(C)(=O)=O [Compound 449, 2-[4-cyano-N-(2-isopropoxyethyl)anilino]-5-methyl-N-methylsulfonyl-thiazole-4-carboxamide]
3 | > 2 µM | Cc1sc(N(CC(=O)NC2CCCCC2)c2ccc(C#N)cc2)nc1C(=O)NS(C)(=O)=O [Compound 423, 2-(4-cyano-N-[2-(cyclohexylamino)-2-oxo-ethyl]anilino)-5-methyl-N-methylsulfonyl-thiazole-4-carboxamide]
4 | > 2 µM | COc1cccc(N(Cc2ccccc2)c2nc(C(=O)NS(C)(=O)=O)c(C)s2)c1 [Example 204, 2-(N-benzyl-3-methoxy-anilino)-5-methyl-N-methylsulfonyl-thiazole-4-carboxamide]
5 | > 2 µM | CNC(=O)COc1ccc(CN(c2ccc(C#N)cc2)c2nc(C(=O)NS(C)(=O)=O)c(C)s2)cc1 [Compound 574, 2-[4-cyano-N-[[4-[2-(methylamino)-2-oxo-ethoxy]phenyl]methyl]anilino]-5-methyl-N-methylsulfonyl-thiazole-4-carboxamide]
6 | 0.631 µM | Cc1sc(N(Cc2ccc(CO)cc2)c2ccc(C#N)cc2)nc1C(=O)NS(C)(=O)=O [Compound 356, 2-[4-cyano-N-[[4-(hydroxymethyl)phenyl]methyl]anilino]-5-methyl-N-methylsulfonyl-thiazole-4-carboxamide]
7 | 0.0631 µM | COc1ccc(CN(c2ccc(C#N)cc2)c2nc(C(=O)NS(C)(=O)=O)c(Br)s2)cc1 [Example 250, 5-bromo-2-[4-cyano-N-[(4-methoxyphenyl)methyl]anilino]-N-methylsulfonyl-thiazole-4-carboxamide]
8 | > 2 µM | Cc1sc(N(Cc2ccccc2)c2ccc(CCO)cc2)nc1C(=O)NS(C)(=O)=O [Example 234, 2-[N-benzyl-4-(2-hydroxyethyl)anilino]-5-methyl-N-methylsulfonyl-thiazole-4-carboxamide]
9 | > 2 µM | Cc1sc(N(CCc2ccc(C(N)=O)cc2)Cc2ccccc2)nc1C(=O)NS(C)(=O)=O [Compound 737, 2-[benzyl-[2-(4-carbamoylphenyl)ethyl]amino]-5-methyl-N-methylsulfonyl-thiazole-4-carboxamide]
10 | > 2 µM | Cc1sc(N(Cc2ccccc2)c2cccc(OCCOCc3ccccc3)c2)nc1C(=O)NS(C)(=O)=O [Example 208, 2-[N-benzyl-3-(2-benzyloxyethoxy)anilino]-5-methyl-N-methylsulfonyl-thiazole-4-carboxamide]
11 | > 2 µM | Cc1sc(N(c2ccc(C#N)cc2F)[C@@H](CO)c2ccccc2)nc1C(=O)NS(C)(=O)=O [Compound 667, 2-(4-cyano-2-fluoro-N-[(1R)-2-hydroxy-1-phenyl-ethyl]anilino)-5-methyl-N-methylsulfonyl-thiazole-4-carboxamide]
12 | > 2 µM | Cc1sc(N(Cc2ccccc2)c2ccc(C#N)cc2)nc1C(=O)NS(=O)(=O)c1ccccc1 [Compound 375, N-(benzenesulfonyl)-2-(N-benzyl-4-cyano-anilino)-5-methyl-thiazole-4-carboxamide]
13 | > 2 µM | Cc1sc(N(Cc2ccccc2)c2ccc(OCCO)cc2)nc1C(=O)NS(C)(=O)=O [Example 211, 2-[N-benzyl-4-(2-hydroxyethoxy)anilino]-5-methyl-N-methylsulfonyl-thiazole-4-carboxamide]
14 | > 2 µM | Cc1sc(N(CC2CCCC(O)C2)c2ccc(C#N)cc2)nc1C(=O)NS(C)(=O)=O (centres unmarked) [Compound 427, 2-[4-cyano-N-[(3-hydroxycyclohexyl)methyl]anilino]-5-methyl-N-methylsulfonyl-thiazole-4-carboxamide]
15 | > 2 µM | Cc1sc(N(Cc2ccccc2)c2ccc(CO)cc2)nc1C(=O)NS(C)(=O)=O [Example 226, 2-[N-benzyl-4-(hydroxymethyl)anilino]-5-methyl-N-methylsulfonyl-thiazole-4-carboxamide]
16 | 0.631 µM | Cc1sc(N(CCc2ccc3ccccc3c2)Cc2ccccc2)nc1C(=O)NS(C)(=O)=O [Example 312, 2-[benzyl-[2-(2-naphthyl)ethyl]amino]-5-methyl-N-methylsulfonyl-thiazole-4-carboxamide]
17 | > 2 µM | COCCN(c1ccc(C#N)cc1)c1nc(C(=O)NS(C)(=O)=O)c(C)s1 [Compound 357, 2-[4-cyano-N-(2-methoxyethyl)anilino]-5-methyl-N-methylsulfonyl-thiazole-4-carboxamide]
18 | 1.58 µM | COc1ccc(N(Cc2ccccc2)c2nc(C(=O)NS(C)(=O)=O)c(C)s2)cc1 [Compound 21, 2-(N-benzyl-4-methoxy-anilino)-5-methyl-N-methylsulfonyl-thiazole-4-carboxamide]

Row | EC50 | Structure (SMILES)
19 | > 2 µM | Cc1sc(N(Cc2ccccc2)c2cccc(-n3cncn3)c2)nc1C(=O)NS(C)(=O)=O [Compound 71, 2-[N-benzyl-3-(1,2,4-triazol-1-yl)anilino]-5-methyl-N-methylsulfonyl-thiazole-4-carboxamide]
20 | > 2 µM | Cc1sc(N(Cc2ccccc2)c2ccccc2CO)nc1C(=O)NS(C)(=O)=O [Compound 606, 2-[N-benzyl-2-(hydroxymethyl)anilino]-5-methyl-N-methylsulfonyl-thiazole-4-carboxamide]
21 | > 2 µM | Cc1sc(N(Cc2ccccn2)c2ccc(C#N)cc2)nc1C(=O)NS(C)(=O)=O [Compound 42, 2-[4-cyano-N-(2-pyridylmethyl)anilino]-5-methyl-N-methylsulfonyl-thiazole-4-carboxamide]
22 | > 2 µM | Cc1sc(N(CCc2ccc(C(=O)O)cc2)Cc2ccccc2)nc1C(=O)NS(C)(=O)=O [Compound 328, 4-[2-[benzyl-[5-methyl-4-(methylsulfonylcarbamoyl)thiazol-2-yl]amino]ethyl]benzoic acid]
23 | > 2 µM | Cc1sc(N(CCc2ccc(C(=O)OC(C)(C)C)cc2)Cc2ccccc2)nc1C(=O)NS(C)(=O)=O [Compound 327, tert-butyl 4-[2-[benzyl-[5-methyl-4-(methylsulfonylcarbamoyl)thiazol-2-yl]amino]ethyl]benzoate]
24 | > 2 µM | Cc1sc(N(CC(=O)N(C)c2ccccc2)c2ccc(C#N)cc2)nc1C(=O)NS(C)(=O)=O [Compound 426, 2-(4-cyano-N-[2-(N-methylanilino)-2-oxo-ethyl]anilino)-5-methyl-N-methylsulfonyl-thiazole-4-carboxamide]
25 | > 2 µM | Cc1sc(N(C[C@H]2CC[C@H](O)CC2)c2ccc(C#N)cc2)nc1C(=O)NS(C)(=O)=O [Compound 354, 2-[4-cyano-N-[(trans-4-hydroxycyclohexyl)methyl]anilino]-5-methyl-N-methylsulfonyl-thiazole-4-carboxamide]
26 | 0.251 µM | CC(=O)c1cccc(CN(c2ccc(C#N)cc2)c2nc(C(=O)NS(C)(=O)=O)c(C)s2)c1 [Compound 95, 2-[N-[(3-acetylphenyl)methyl]-4-cyano-anilino]-5-methyl-N-methylsulfonyl-thiazole-4-carboxamide]
27 | > 2 µM | Cc1ccn(CCN(Cc2ccccc2)c2nc(C(=O)NS(C)(=O)=O)c(C)s2)n1 [Compound 681, 2-[benzyl-[2-(3-methylpyrazol-1-yl)ethyl]amino]-5-methyl-N-methylsulfonyl-thiazole-4-carboxamide]
28 | > 2 µM | Cc1sc(N(Cc2ccccc2)c2cccc(F)c2)nc1C(=O)NS(C)(=O)=O [Compound 29, 2-(N-benzyl-3-fluoro-anilino)-5-methyl-N-methylsulfonyl-thiazole-4-carboxamide]
29 | > 2 µM | Cc1sc(N(CC[C@H]2C[C@H](O)CO2)c2ccc(C#N)cc2)nc1C(=O)NS(C)(=O)=O (racemic) [Compound 457, 2-[4-cyano-N-[2-[trans-4-hydroxytetrahydrofuran-2-yl]ethyl]anilino]-5-methyl-N-methylsulfonyl-thiazole-4-carboxamide]
30 | > 2 µM | Cc1sc(N(CCc2cccc(S(C)(=O)=O)c2)Cc2ccccc2)nc1C(=O)NS(C)(=O)=O [Compound 331, 2-[benzyl-[2-(3-methylsulfonylphenyl)ethyl]amino]-5-methyl-N-methylsulfonyl-thiazole-4-carboxamide]
31 | > 2 µM | Cc1sc(N(CC(O)c2ccccc2)c2ccc(C#N)cc2)nc1C(=O)NS(C)(=O)=O (centres unmarked) [Compound 468, 2-(4-cyano-N-(2-hydroxy-2-phenyl-ethyl)anilino)-5-methyl-N-methylsulfonyl-thiazole-4-carboxamide]
32 | 0.0398 µM | Cc1cc(F)cc(CN(c2ccc(C#N)cc2)c2nc(C(=O)NS(C)(=O)=O)c(C)s2)c1 [Compound 98, 2-[4-cyano-N-[(3-fluoro-5-methyl-phenyl)methyl]anilino]-5-methyl-N-methylsulfonyl-thiazole-4-carboxamide]
33 | > 2 µM | Cc1sc(N(Cc2ccccc2)Cc2cccc(C#N)c2)nc1C(=O)NS(C)(=O)=O [Example 290, 2-[benzyl-[(3-cyanophenyl)methyl]amino]-5-methyl-N-methylsulfonyl-thiazole-4-carboxamide]
34 | 0.0316 µM | Cc1cccc(CN(c2ccc(C#N)cc2)c2nc(C(=O)NS(C)(=O)=O)c(Cl)s2)c1 [Example 266, 5-chloro-2-[4-cyano-N-(m-tolylmethyl)anilino]-N-methylsulfonyl-thiazole-4-carboxamide]
35 | 0.501 µM | Cc1sc(N(Cc2ccccc2CO)c2ccc(C#N)cc2)nc1C(=O)NS(C)(=O)=O [Compound 355, 2-[4-cyano-N-[[2-(hydroxymethyl)phenyl]methyl]anilino]-5-methyl-N-methylsulfonyl-thiazole-4-carboxamide]
